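Each compound was tested at five concentrations against cells in 96-well plates for 48 hours. Abbreviation: GI50, concentration required for 50% inhibition of growth.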 Activity calls are given as the source filed them. No stated cut-off is given here; in the data, active = GI50 up to about 1.1 µM and inactive = higher.
Assays:
Assay in all cases: DTP human tumour cell line panel, 48 h
[1] = test system: ACHN
[2] = test system: DU-145
[3] = test system: EKVX
[4] = test system: K562
[5] = test system: LOX IMVI
[6] = test system: MCF7
[7] = test system: MDA-MB-231
[8] = test system: MOLT-4
[9] = test system: OVCAR-4
[10] = test system: OVCAR-8
[11] = test system: RXF 393
[12] = test system: SK-MEL-28
[13] = test system: SK-OV-3
[14] = test system: SN12C
[15] = test system: SNB-75
[16] = test system: SR
[17] = test system: T47D
[18] = test system: U-251
[19] = test system: UACC-257
[20] = test system: NCI/ADR-RES

| Structure (SMILES) | GI50 [1] | GI50 [2] | GI50 [3] | GI50 [4] | GI50 [5] | GI50 [6] | GI50 [7] | GI50 [8] | GI50 [9] | GI50 [10] | GI50 [11] | GI50 [12] | GI50 [13] | GI50 [14] | GI50 [15] | GI50 [16] | GI50 [17] | GI50 [18] | GI50 [19] | GI50 [20] |
| --- | --- | --- | --- | --- | --- | --- | --- | --- | --- | --- | --- | --- | --- | --- | --- | --- | --- | --- | --- | --- |
| COC1C(=O)CCC2(CO2)C1(O)C1(C)OC1CC=C(C)C (centres undefined) | 17.6 µM (inactive) | 19.5 µM (inactive) | 93.5 µM (inactive) | 16.9 µM (inactive) | 5.21 µM (inactive) | 11.8 µM (inactive) | > 100 µM (inactive) | 25.1 µM (inactive) | > 100 µM (inactive) | 30.9 µM (inactive) | 22.9 µM (inactive) | 17.3 µM (inactive) | 51.6 µM (inactive) | > 100 µM (inactive) | 69.8 µM (inactive) | 13.9 µM (inactive) | > 100 µM (inactive) | 13.9 µM (inactive) | 23.2 µM (inactive) | – |
| O=C(CNC(=O)OCc1ccccc1)NCCCCC(NC(=O)OCc1ccccc1)C(=O)NC(CCCCNC(=O)CNC(=O)OCc1ccccc1)C(=O)OCc1ccccc1 (centres undefined) | > 62.5 µM (inactive) | > 62.5 µM (inactive) | – | > 62.5 µM (inactive) | > 62.5 µM (inactive) | > 62.5 µM (inactive) | > 62.5 µM (inactive) | > 62.5 µM (inactive) | > 62.5 µM (inactive) | > 62.5 µM (inactive) | – | > 62.5 µM (inactive) | – | > 62.5 µM (inactive) | > 62.5 µM (inactive) | > 62.5 µM (inactive) | > 62.5 µM (inactive) | > 62.5 µM (inactive) | > 62.5 µM (inactive) | – |
| N#C/C(=C/C=C/c1ccco1)C(N)=O | > 10 µM (inactive) | > 10 µM (inactive) | > 10 µM (inactive) | – | > 10 µM (inactive) | > 10 µM (inactive) | > 10 µM (inactive) | – | – | > 10 µM (inactive) | > 10 µM (inactive) | > 10 µM (inactive) | > 10 µM (inactive) | > 10 µM (inactive) | > 10 µM (inactive) | – | > 10 µM (inactive) | > 10 µM (inactive) | – | > 10 µM (inactive) |
| Clc1cccc(N/N=N/c2ccc(-c3nc4ccccc4s3)cc2)c1 | > 100 µM (inactive) | > 100 µM (inactive) | > 100 µM (inactive) | 28.6 µM (inactive) | 53 µM (inactive) | 47.5 µM (inactive) | – | 18.4 µM (inactive) | 46.9 µM (inactive) | 22.4 µM (inactive) | 27.2 µM (inactive) | 42.8 µM (inactive) | 42.3 µM (inactive) | 21.9 µM (inactive) | 30.3 µM (inactive) | 20.9 µM (inactive) | 47.9 µM (inactive) | 36.9 µM (inactive) | > 100 µM (inactive) | 27.9 µM (inactive) |
| Cc1ccc(OCC2OC(n3cnc4c(N(C)C)nc(Br)nc43)CC2Oc2ccc(C)cc2)cc1 (centres undefined) | > 100 µM (inactive) | > 100 µM (inactive) | > 100 µM (inactive) | > 100 µM (inactive) | > 100 µM (inactive) | > 100 µM (inactive) | > 100 µM (inactive) | – | > 100 µM (inactive) | > 100 µM (inactive) | – | > 100 µM (inactive) | > 100 µM (inactive) | > 100 µM (inactive) | – | – | > 100 µM (inactive) | > 100 µM (inactive) | > 100 µM (inactive) | > 100 µM (inactive) |
| NC1c2c(Br)sc(N3CCCC3)c2C(=O)C1O (centres undefined) | > 50 µM (inactive) | > 50 µM (inactive) | > 50 µM (inactive) | > 50 µM (inactive) | > 50 µM (inactive) | > 50 µM (inactive) | 29.1 µM (inactive) | > 50 µM (inactive) | > 50 µM (inactive) | > 50 µM (inactive) | – | – | > 50 µM (inactive) | > 50 µM (inactive) | > 50 µM (inactive) | – | > 50 µM (inactive) | > 50 µM (inactive) | > 50 µM (inactive) | > 50 µM (inactive) |
| C[C@@H]1S[C@H](c2c(Cl)cccc2Cl)N2Cc3ccccc3N=C12 | > 100 µM (inactive) | > 100 µM (inactive) | 42.9 µM (inactive) | > 100 µM (inactive) | > 100 µM (inactive) | > 100 µM (inactive) | > 100 µM (inactive) | > 100 µM (inactive) | > 100 µM (inactive) | – | > 100 µM (inactive) | > 100 µM (inactive) | > 100 µM (inactive) | > 100 µM (inactive) | > 100 µM (inactive) | > 100 µM (inactive) | > 100 µM (inactive) | > 100 µM (inactive) | > 100 µM (inactive) | – |
| CSc1nc(=O)n(CCC#N)nc1SC | 38.8 µM (inactive) | 51.8 µM (inactive) | > 100 µM (inactive) | 25.6 µM (inactive) | 19.5 µM (inactive) | 2.72 µM (inactive) | 19.2 µM (inactive) | 23.7 µM (inactive) | – | 59.6 µM (inactive) | – | 14 µM (inactive) | > 100 µM (inactive) | 47.9 µM (inactive) | 51.5 µM (inactive) | 32.8 µM (inactive) | 24.3 µM (inactive) | > 100 µM (inactive) | > 10 µM (inactive) | > 100 µM (inactive) |
| COC(=O)c1c2c(cc3c1CC1(C3)Cc3cc4c(c(C(=O)OC)c3C1)CCC4)CCC2 | > 100 µM (inactive) | – | > 100 µM (inactive) | > 100 µM (inactive) | > 100 µM (inactive) | > 100 µM (inactive) | > 100 µM (inactive) | > 100 µM (inactive) | 86.9 µM (inactive) | > 100 µM (inactive) | > 100 µM (inactive) | – | > 100 µM (inactive) | > 100 µM (inactive) | – | 30.7 µM (inactive) | > 100 µM (inactive) | > 100 µM (inactive) | > 100 µM (inactive) | > 100 µM (inactive) |
| Cc1ccc(S(=O)(=O)N2CCSCCSCCN(S(=O)(=O)c3ccc(C)cc3)CCN(S(=O)(=O)c3ccc(C)cc3)CC2)cc1 | > 100 µM (inactive) | > 100 µM (inactive) | > 100 µM (inactive) | > 100 µM (inactive) | > 100 µM (inactive) | > 100 µM (inactive) | > 100 µM (inactive) | > 100 µM (inactive) | > 100 µM (inactive) | > 100 µM (inactive) | > 100 µM (inactive) | > 100 µM (inactive) | > 100 µM (inactive) | > 100 µM (inactive) | – | – | > 100 µM (inactive) | > 100 µM (inactive) | > 100 µM (inactive) | > 100 µM (inactive) |
| O=C(CSCC(=O)N/N=C/c1ccncc1)N/N=C/c1ccncc1 | > 100 µM (inactive) | > 100 µM (inactive) | > 100 µM (inactive) | > 100 µM (inactive) | > 100 µM (inactive) | > 100 µM (inactive) | > 100 µM (inactive) | > 100 µM (inactive) | > 100 µM (inactive) | > 100 µM (inactive) | > 100 µM (inactive) | > 100 µM (inactive) | > 100 µM (inactive) | > 100 µM (inactive) | > 100 µM (inactive) | – | > 100 µM (inactive) | > 100 µM (inactive) | > 100 µM (inactive) | > 100 µM (inactive) |
| O=C(/C=C/c1ccc(Cl)cc1)Oc1ccc(C=C2CCC/C(=C\c3ccc(OC(=O)/C=C/c4ccc(Cl)cc4)cc3)C2=O)cc1 | > 100 µM (inactive) | > 100 µM (inactive) | > 100 µM (inactive) | > 100 µM (inactive) | > 100 µM (inactive) | > 100 µM (inactive) | > 100 µM (inactive) | > 100 µM (inactive) | > 100 µM (inactive) | > 100 µM (inactive) | > 100 µM (inactive) | > 100 µM (inactive) | > 100 µM (inactive) | > 100 µM (inactive) | > 79.1 µM (inactive) | – | > 100 µM (inactive) | > 100 µM (inactive) | > 100 µM (inactive) | > 100 µM (inactive) |
| Nc1cc(CO)cc(Nc2nc3ccc(Cl)cc3c3[nH]c4ccccc4c23)c1 | 3.17 µM (inactive) | 3.65 µM (inactive) | 1.52 µM (inactive) | 4.67 µM (inactive) | – | 0.67 µM (active) | 2.55 µM (inactive) | 4.2 µM (inactive) | – | 4.28 µM (inactive) | – | – | 3.24 µM (inactive) | 2.89 µM (inactive) | – | 2.16 µM (inactive) | 3.74 µM (inactive) | 3.05 µM (inactive) | 10.7 µM (inactive) | 8.45 µM (inactive) |
| Cc1cccc(N(CCC#N)S(=O)(=O)c2ccccc2)c1 | > 100 µM (inactive) | > 100 µM (inactive) | > 100 µM (inactive) | > 100 µM (inactive) | > 100 µM (inactive) | > 100 µM (inactive) | > 100 µM (inactive) | > 100 µM (inactive) | > 100 µM (inactive) | > 100 µM (inactive) | – | > 100 µM (inactive) | > 100 µM (inactive) | > 100 µM (inactive) | > 100 µM (inactive) | > 100 µM (inactive) | > 100 µM (inactive) | > 100 µM (inactive) | > 100 µM (inactive) | > 100 µM (inactive) |
| CC(Nc1cccc(Cl)c1)c1ccncc1 (centres undefined) | 87.1 µM (inactive) | 94.4 µM (inactive) | 57.9 µM (inactive) | 23.1 µM (inactive) | > 100 µM (inactive) | > 100 µM (inactive) | > 100 µM (inactive) | 31 µM (inactive) | > 100 µM (inactive) | 88.3 µM (inactive) | 42.8 µM (inactive) | > 100 µM (inactive) | 15.8 µM (inactive) | > 100 µM (inactive) | > 100 µM (inactive) | – | 27.4 µM (inactive) | > 100 µM (inactive) | 74.1 µM (inactive) | 51.3 µM (inactive) |

Source: ChEMBL document CHEMBL1201862, “PubChem BioAssay data set” (2004)
